Assay [1] deals with T1, jack bean urease (JBU; EC 3.5.1.5) (Canavalia ensiformis, UniProt P07374).
T1 construct: purchased Sigma-Aldrich
The assay is described as follows: biochemical. The note with it: JB urease, mean ± SEM, at least three experiments. How it is done: All chemicals and jack bean urease (JBU; EC 3.5.1.5) were purchased from Sigma-Aldrich. The urease inhibitory activity of N-thioacylated ciprofloxacin derivatives 3a–n was determined by Berthelot colorimetric method. The ammonia (NH3) produced by the urease enzyme along with indicator solutions including hypochlorite (OCl^−) and phenol make a blue-colored indophenol complex and the absorbance was measured at 625 nm by a Synergy H1 Hybrid multimode microplate reader (BioTek, Winooski, VT, USA).
Assay completed in two steps, at the first step the enzyme cocktail for each compound consisted of 50 µl urease enzyme (3 mg/ml in phosphate buffer, pH 7.4), 100 µl of test compound at different concentrations (0–10 mg/ml, in phosphate buffer, pH 7.4) and 850 µl urea solution (30 mM, in phosphate buffer, pH 7.4). This mixture was incubated at 37 °C for 30 min.
For the second step, each 100 µl of the above mixture was added to 500 µl of indicator solutions A (0.5 g phenol and 25 mg sodium nitroprusside in 500 ml distilled water) and 500 µl of B (2.5 g sodium hydroxide and 4.2 ml sodium hypochlorite (5%) in 500 ml distilled water) and further incubated at 37 °C for 30 min. The absorbance of blue-colored indophenol of each cell is related to the percentage of enzyme inhibition using the following equation: I%=1-T/C×100.
In this equation, I (%) is assigned to the percent of enzyme inhibition. (T) is assigned to the absorbance of our test compounds and C is assigned to the negative control absorbance which is the absorbance of our cocktail without any inhibitor compound. Thiourea and hydroxyurea were used as the positive controls. The IC50 values of test compounds were calculated using GraphPad PRISM 8.0 software (GraphPad, San Diego, CA, USA).

The next assay has as its system urease. The arrangement: method as in PMID 34179623. The note with it: read-out: IC50 against urease; cited from earlier work.
The test system of the next assay is jack bean urease. Also noted: method as in PMID 28574649. The note with it: read-out: IC50 against urease; cited from earlier work.
For another assay, the system named is C. neoformans (H99). The assay is described as follows: Anti-ureolytic assay, colorimetric microdilution in urea broth. The following applies: Cryptococcus neoformans, urea broth pH 6. It is filed as cell-based. As for the experimental part:
(§1) The colorimetric microdilution technique using urea broth media (Merck, supplemented with glucose; pH 6 for C. neoformans) was used to determine the ureolytic activity of C. neoformans (H99), and clinical isolate of P. vulgaris treated with 3n according to previously reported procedures[18],[37].
In general terms: Broth dilution looks for growth in wells or tubes with falling amounts of substance.

Assay [2] has as its system clinical isolate of P. vulgaris. The assay is described as above. It is filed as cell-based. The following applies: Proteus vulgaris. As for the experimental part: as §1
For assay [3], the system named is Escherichia coli ATCC 8739. The assay is described as follows: Antibacterial activity, agar dilution MIC. It is filed as cell-based. The note with it: ATCC8739. How it is done:
(§2) Antibacterial activity of the synthesized compounds 3a–n were determined according to the agar dilution methods for Gram-positive bacteria strains (Staphylococcus aureus ATCC 6538 and Staphylococcus epidermidis ATCC 12228) and Gram-negative bacteria strains (Escherichia coli ATCC 8739 and Pseudomonas aeruginosa ATCC 9027).
(§3) Two Gram-positive bacteria strains (Staphylococcus aureus ATCC 6538 and Staphylococcus epidermidis ATCC 12228) and two Gram-negative bacteria strains (Escherichia coli ATCC 8739 and Pseudomonas aeruginosa ATCC 9027) were used for evaluation of the synthesized N-thioacylated ciprofloxacin derivatives 3a–n. All the strains were obtained from Iranian Microbial Collection (Pasteur Institute of Iran, Tehran, Iran). The antibacterial activity of the synthesized compounds was determined according to the agar dilution methods of the National Committee for Clinical Laboratory Standards[43].
(§4) Briefly, a series of twofold dilutions of test compounds 3a–n and ciprofloxacin, the standard antibiotic, were dissolved in 1 ml of DMSO. Each concentration was added to molten test agars that have been allowed to equilibrate in a water bath to 55 °C, to attain the concentrations ranging from 100 to 0.003 µg/ml. To compare the MIC values; the standard antibiotic, ciprofloxacin was also diluted in the same manner.
(§5) To prepare the inoculums suspensions, the bacteria were cultured on Muller-Hinton agar 12–16 h before the test. On the day of the experiment, a single colony of each bacteria was suspended Muller–Hinton broth to reach the turbidity of 0.5 McFarland standard (0.08–0.1 absorbance at 600 nm), which is approximately equivalent to 1.5 × 10^8 CFU/ml. The suspensions were then diluted at 1:10 in sterile saline to obtain a concentration of 1.5 × 10^7 CFU/ml. The plates were dot inoculated with 2 ul of each bacterial suspension and incubated at 37 °C overnight. The MIC was also defined as the lowest concentration of test compounds that completely prevents the growth of bacteria on agar plate following overnight incubation.
Background: In agar dilution the substance is mixed into plates at graded concentrations.

Assay [4] has as its system Staphylococcus aureus ATCC 6538. Description: Antibacterial activity, agar dilution MIC. In kind it is cell-based. The following applies: ATCC6538, read-out: MIC S. aureus. As for the experimental part: as §2, §3, §4, §5
Assay [5] deals with Staphylococcus epidermidis ATCC 12228. The assay is described as follows: Antibacterial activity, agar dilution MIC. It is filed as cell-based. The note with it: ATCC12228, read-out: MIC S. epidermidis. As for the experimental part: as §2, §3, §4, §5
Assay [6] has as its system Pseudomonas aeruginosa ATCC 9027. Description: Antibacterial activity, agar dilution MIC. In kind it is cell-based. The following applies: ATCC9027, read-out: MIC P. aeruginosa. How it is done: as §2, §3, §4, §5

Structures are written as SMILES. In brackets after ≈: the same amount, converted by molar mass. Read-outs that look alike come from different tables or passages of the source.

T1 sequence (P07374 whole entry, looked up): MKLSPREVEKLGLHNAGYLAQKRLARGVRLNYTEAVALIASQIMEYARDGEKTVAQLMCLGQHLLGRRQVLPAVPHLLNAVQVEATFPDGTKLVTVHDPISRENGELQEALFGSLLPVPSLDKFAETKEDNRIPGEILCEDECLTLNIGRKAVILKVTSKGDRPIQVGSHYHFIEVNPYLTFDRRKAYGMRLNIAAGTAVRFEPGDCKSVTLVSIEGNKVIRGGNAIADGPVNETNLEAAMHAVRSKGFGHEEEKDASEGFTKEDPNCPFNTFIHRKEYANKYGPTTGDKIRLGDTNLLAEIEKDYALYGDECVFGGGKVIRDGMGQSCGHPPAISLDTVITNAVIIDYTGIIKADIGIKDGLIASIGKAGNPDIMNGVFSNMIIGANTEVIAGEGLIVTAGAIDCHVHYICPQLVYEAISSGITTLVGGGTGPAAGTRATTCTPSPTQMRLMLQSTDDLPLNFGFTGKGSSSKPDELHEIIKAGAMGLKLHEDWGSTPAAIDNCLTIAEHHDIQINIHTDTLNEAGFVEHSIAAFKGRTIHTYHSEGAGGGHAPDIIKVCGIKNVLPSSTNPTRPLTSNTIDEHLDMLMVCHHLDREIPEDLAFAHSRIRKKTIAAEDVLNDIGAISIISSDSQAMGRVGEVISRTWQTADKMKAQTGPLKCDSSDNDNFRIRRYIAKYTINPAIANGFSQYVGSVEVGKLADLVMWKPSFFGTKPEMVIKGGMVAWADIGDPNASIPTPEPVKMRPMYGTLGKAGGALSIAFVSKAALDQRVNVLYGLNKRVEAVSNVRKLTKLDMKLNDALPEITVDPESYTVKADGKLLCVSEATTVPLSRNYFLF

On to `NC(N)=S` [Thiourea], for which the IC50 (usually the concentration that inhibits the measured activity by half) is 23 ± 0.84 µM in assay [1] (read-out: IC50 urease inhibitory activity), 21.7 ± 0.34 µM with urease and 4.72 ± 0.174 µM with jack bean urease.
Take `O=C(O)c1cn(C2CC2)c2cc(N3CCN(C(=S)c4ccc([N+](=O)[O-])cc4)CC3)c(F)cc2c1=O` [Compound 3n, 1-Cyclopropyl-6-fluoro-7-(4-(4-nitrophenylcarbonothioyl)piperazin-1-yl)-4-oxo-1,4-dihydroquinoline-3-carboxylic acid]: the concentration for half-maximal inhibition (IC50) in [1] (IC50 urease inhibitory activity) was found to be 2.05 ± 0.03 µM; with C. neoformans (H99), 5.59 ± 2.38 µg/mL (≈ 11.3 µM); in assay [2], 5.72 ± 1.31 µg/mL (≈ 11.5 µM). Also, the MIC (as a rule, the lowest concentration that inhibits growth of the organism) in assay [3] stood at 0.097 µg/mL (≈ 0.195 µM); in [4], 0.781 µg/mL (≈ 1.57 µM); in [5], 0.39 µg/mL (≈ 0.785 µM); in [6], 1.56 µg/mL (≈ 3.15 µM).
With `NC(=S)N1N=C(c2cc3ccccc3oc2=O)CC1c1ccccc1` (centres unmarked) [Compound D], the IC50 with jack bean urease is 0.000358 ± 1.7e-05 µM.

Source of the values: PMC9378659, “Design and synthesis of new N-thioacylated ciprofloxacin derivatives as urease inhibitors with potential antibacterial activity” (Scientific Reports, 2022).
